Data on three compounds can be found in publication PMC9610492, “BRD9 Inhibition by Natural Polyphenols Targets DNA Damage/Repair and Apoptosis in Human Colon Cancer Cells” (Nutrients, 2022).

Where two headings read alike, the source gives them in different places.

Assay type in all cases: binding
The target in experiment [1] is T1, BRD9 (bromodomain-containing protein 9) (Homo sapiens, UniProt Q9H8M2).
T1 sequence (Q9H8M2 1-597): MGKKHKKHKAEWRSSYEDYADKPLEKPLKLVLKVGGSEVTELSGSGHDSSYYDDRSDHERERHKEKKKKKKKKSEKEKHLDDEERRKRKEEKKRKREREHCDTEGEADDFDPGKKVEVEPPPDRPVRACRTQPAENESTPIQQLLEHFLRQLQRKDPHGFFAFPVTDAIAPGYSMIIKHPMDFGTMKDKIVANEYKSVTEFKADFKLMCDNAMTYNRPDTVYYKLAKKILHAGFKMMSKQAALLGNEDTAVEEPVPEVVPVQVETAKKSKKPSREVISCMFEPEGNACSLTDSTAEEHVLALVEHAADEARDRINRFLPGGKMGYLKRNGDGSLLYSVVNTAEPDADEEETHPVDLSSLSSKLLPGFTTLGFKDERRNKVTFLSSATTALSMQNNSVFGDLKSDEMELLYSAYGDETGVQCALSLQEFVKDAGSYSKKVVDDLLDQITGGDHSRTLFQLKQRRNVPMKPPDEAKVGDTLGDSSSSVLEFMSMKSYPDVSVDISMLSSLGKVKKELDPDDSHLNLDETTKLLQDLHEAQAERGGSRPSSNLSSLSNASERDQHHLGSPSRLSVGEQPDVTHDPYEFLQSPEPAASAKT
The experiment in a line: ITC with purified BRD9 (N = […]); BROMOscan […] inhibition at […].

For experiment [2], the target named is T1, BRD9 (bromodomain-containing protein 9). The description is as above. The source holds these as a separate data set.
Experiment [3] has the same target. Nature of the experiment: BROMOscan at […], blinded positive control.

One may read the Kd as the concentration at which binding is half-saturated. Higher therefore signals a looser complex. In experiment [1], `O=C(CCc1ccc(O)c(O)c1)c1c(O)cc(O)c([C@@H]2O[C@H](CO)[C@@H](O)[C@H](O)[C@H]2O)c1O` [Aspalathin] returned a Kd of 20 µM. In the case of `O=c1cc(-c2ccc(O)c(O)c2)oc2c([C@@H]3O[C@H](CO)[C@@H](O)[C@H](O)[C@H]3O)c(O)cc(O)c12` [Orientin], the Kd in experiment [2] was 20 µM. Broadly, the inhibition is the drop in the measured response relative to a control, in per cent. A lower inhibition goes with a response near the control. The compound `CCn1cc(-c2cccc(C(F)(F)F)c2)c2sc(C(=N)NC3CCS(=O)(=O)CC3)cc2c1=O` [iBRD9] came in with an inhibition at 10 µM in experiment [3] of 99%.
